According to PubChem BioAssay AID2060887 (Molecular Pharmacology Branch, DTP, NCI, 2025):

Tested on: 782815-120-R-J1-PDC complex spheroid viability
Experiment: Anticancer human tumor 782815-120-R-J1-PDC patient-derived colon adenocarcinoma cell line growth inhibition [RAS]
Details: for IC50: curve of first compound; for viability, T/C: stronger effect = lower value; active = viability on the fitted dose curve at most 10% of control; inactive = the rest
Description: RAS pathway inhibitors in Combinations in Complex Spheroids
A high-throughput screen of multi-cell type tumor spheroids was designed to identify active combinations of RAS pathway inhibitors and targeted small molecules. Complex spheroids include a stromal component modeled by human endothelial cells (HUVEC) and fibroblasts modeled by human mesenchymal stem cells (MSCs). The concentration ranges selected for each drug and investigational agent were based upon clinically achievable concentrations if the clinical Cmax of the agent was known.
Compounds. The drugs and investigational agents: abemaciclib (NSC768073), cobimetinib (NSC768068), divarasib (GDC6063, NSC841802), docetaxel (NSC628503), GDC-1971 (RLY-1971, NSC841576), gemcitabine (NSC613327), inavolisib (NSC800729), ipatasertib (NSC767898), KB-0742 (NSC834161), MRTX-1133 (NSC836407), osimertinib (NSC779217), RMC-4630 (NSC839698), RMC-6236 (NSC851965), RMC-6291 (NSC852671), Ro-3306 (NSC812927), sapanisertib (NSC764658), SN-38 (NSC673596), staurosporine (NSC755774), SY5609 (NSC837396), and tovorafenib (DAY101, NSC766906), were obtained from the National Cancer Institute (NCI) Developmental Therapeutics Program Chemical Repository. The FDA-approved anticancer drug set is available from the NCI Developmental Therapeutics Program. […] The stock solutions were prepared in dimethyl sulfoxide (DMSO, Sigma-Aldrich, St. Louis, MO, cat. D2650) at 800-fold the tested concentration and stored at -70 degrees C prior to their use. All drugs and investigational agents were tested over a range starting from a high concentration at or near the clinical Cmax and decreasing in half-log increments. If the clinical Cmax for an agent had not been determined, the highest concentration tested was 10 microM.
Cell Culture. All cells were maintained in an incubator at 37 degrees C and 5% CO2 with 95% humidity. The PDC lines were cultured according to standard operating procedures established by the NCI PDMR. All PDCs were thawed and cultured in Matrigel-coated flasks prepared with a working solution of 1X Ham's F-12 nutrient mix, without supplementation (Invitrogen, Waltham, MA, cat. 11765054), 100 U/mL penicillin-streptomycin (Invitrogen, cat. 15140122), and 2.5% Matrigel (Corning Inc., Corning, NY, cat. 354248) for the first three passages. The 362531-283-R-J2-PDC and 782815-120-R-J1-PDC lines were cultured in 6C/Colon 1B media, which includes advanced DMEM/F-12 (Thermo Fisher Scientific, cat. 12634028), 10 mM HEPES (Thermo Fisher Scientific, cat. 15630080), 1X GlutaMAX supplement (Thermo Fisher Scientific, cat. 35050061), 0.1 mg/mL primocin (InvivoGen, San Diego, CA, cat. ant-pm-2), 10% defined fetal bovine serum, heat inactivated (HyClone Laboratories Inc., Logan, UT, cat. SH30070.03HI), 50% L-WRN conditioned media (ATCC, cat. CRL-3276), 1.25 mM N-Acetyl-L-cysteine (Sigma-Aldrich, cat. A9165), 10 mM nicotinamide (Sigma-Aldrich, cat. N0636), 1X B-27 supplement (Thermo Fisher Scientific, cat. 17504044), 1X N-2 supplement (Thermo Fisher Scientific, cat. 17502048), 50 ng/mL human EGF (Thermo Fisher Scientific, cat. PHG0311), and 10 microM Y-27632 dihydrochloride (Tocris Bioscience, cat. 1254). The K12877-001-R-J1-PDC line was cultured in 6I media, which includes all 6C/Colon 1B media plus 10 ng/mL human FGF-10 (PeproTech, cat. 100-26), 1 ng/mL human FGF-2 (PeproTech, cat. 100-18B), 1 µM prostaglandin E2 (Tocris Bioscience, cat. 2296), […] hydrocortisone (Sigma-Aldrich, cat. H4001), and […] bovine insulin (Sigma-Aldrich, cat. I6634). The K86415-001-R-J1-PDC line was cultured in 6D media, which includes all 6C/Colon 1B media components minus the L-WRN conditioned media. The 485176-168-R4-J1-PDC was cultured in PANC media, which includes all 6C/Colon 1B media plus 100 ng/mL human FGF-10 (PeproTech, cat. 100-26), 500 nM SB-431542 (Selleckchem, cat. S1067), and 10 nM gastrin (Tocris Bioscience, cat. 3006). […]

[1] = second compound 0.0316 µM, first compound 0.0316 µM
[2] = second compound 0.0316 µM, first compound 0.1 µM
[3] = second compound 0.0316 µM, first compound 0.316 µM
[4] = second compound 0.0316 µM, first compound 1 µM
[5] = second compound 0.0316 µM, first compound 3.16 µM
[6] = second compound 0.0316 µM, first compound 10 µM
[7] = second compound 0.1 µM, first compound 0.0316 µM
[8] = second compound 0.1 µM, first compound 0.1 µM
[9] = second compound 0.1 µM, first compound 0.316 µM
[10] = second compound 0.1 µM, first compound 1 µM
[11] = second compound 0.1 µM, first compound 3.16 µM
[12] = second compound 0.1 µM, first compound 10 µM
[13] = second compound 0.316 µM, first compound 0.0316 µM
[14] = second compound 0.316 µM, first compound 0.1 µM
[15] = second compound 0.316 µM, first compound 0.316 µM
[16] = second compound 0.316 µM, first compound 1 µM
[17] = second compound 0.316 µM, first compound 3.16 µM
[18] = second compound 0.316 µM, first compound 10 µM
[19] = second compound 1 µM, first compound 0.0316 µM
[20] = second compound 1 µM, first compound 0.1 µM
[21] = second compound 1 µM, first compound 0.316 µM
[22] = second compound 1 µM, first compound 1 µM
[23] = second compound 1 µM, first compound 3.16 µM
[24] = second compound 1 µM, first compound 10 µM
[25] = second compound 3.16 µM, first compound 0.0316 µM
[26] = second compound 3.16 µM, first compound 0.1 µM
[27] = second compound 3.16 µM, first compound 0.316 µM
[28] = second compound 3.16 µM, first compound 1 µM
[29] = second compound 3.16 µM, first compound 3.16 µM
[30] = second compound 3.16 µM, first compound 10 µM
[31] = second compound 10 µM, first compound 0.0316 µM
[32] = second compound 10 µM, first compound 0.1 µM
[33] = second compound 10 µM, first compound 0.316 µM
[34] = second compound 10 µM, first compound 1 µM
[35] = second compound 10 µM, first compound 3.16 µM
[36] = second compound 10 µM, first compound 10 µM
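Also: spheroids exposed to compounds for 7 days before reading.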

CC1(O)CCCC1n1c(=O)c(C(F)F)cc2cnc(NC3CCN(S(C)(=O)=O)CC3)nc21 (stereo unspecified) + C#Cc1c(F)ccc2cc(O)cc(-c3ncc4c(N5CC6CCC(C5)N6)nc(OCC56CCCN5CC(F)C6)nc4c3F)c12
inactive: viability, T/C [1] 73.7% | viability, T/C [2] 74.5% | viability, T/C [3] 65.7% | viability, T/C [4] 76% | viability, T/C [5] 68.8% | viability, T/C [6] 35.1% | viability, T/C [7] 83.1% | viability, T/C [8] 75.2% | viability, T/C [9] 68.8% | viability, T/C [10] 62.8% | viability, T/C [11] 66.4% | viability, T/C [12] 32.6% | viability, T/C [13] 78.6% | viability, T/C [14] 79.7% | viability, T/C [15] 69.2% | viability, T/C [16] 69.2% | viability, T/C [17] 65.6% | viability, T/C [18] 34.4% | viability, T/C [19] 88.5% | viability, T/C [20] 77.7% | viability, T/C [21] 75.4% | viability, T/C [22] 69.5% | viability, T/C [23] 70.7% | viability, T/C [24] 28.6% | viability, T/C [25] 77.5% | viability, T/C [26] 67.4% | viability, T/C [27] 68.7% | viability, T/C [28] 71% | viability, T/C [29] 79.1% | viability, T/C [30] 29.5% | viability, T/C [31] 70.7% | viability, T/C [32] 65.8% | viability, T/C [33] 65.5% | viability, T/C [34] 67.3% | viability, T/C [35] 74.3% | viability, T/C [36] 19.5%
4.9 µM: IC50 (second compound 10 µM)
5.35 µM: IC50 (second compound 0.316 µM)
5.29 µM: IC50 (second compound 1 µM)
6.05 µM: IC50 (second compound 0.0316 µM)
5.79 µM: IC50 (second compound 3.16 µM)
4.76 µM: IC50 (second compound 0.1 µM)

CCN1CCN(Cc2ccc(Nc3ncc(F)c(-c4cc(F)c5nc(C)n(C(C)C)c5c4)n3)nc2)CC1 + C#Cc1c(F)ccc2cc(O)cc(-c3ncc4c(N5CC6CCC(C5)N6)nc(OCC56CCCN5CC(F)C6)nc4c3F)c12
inactive: viability, T/C (second compound 0.0316 µM, first compound 0.00316 µM) 103% | viability, T/C (second compound 0.0316 µM, first compound 0.01 µM) 105% | viability, T/C [1] 112% | viability, T/C [2] 102% | viability, T/C [3] 109% | viability, T/C [4] 123% | viability, T/C (second compound 0.1 µM, first compound 0.00316 µM) 107% | viability, T/C (second compound 0.1 µM, first compound 0.01 µM) 104% | viability, T/C [7] 95.8% | viability, T/C [8] 104% | viability, T/C [9] 113% | viability, T/C [10] 130% | viability, T/C (second compound 0.316 µM, first compound 0.00316 µM) 108% | viability, T/C (second compound 0.316 µM, first compound 0.01 µM) 101% | viability, T/C [13] 100% | viability, T/C [14] 110% | viability, T/C [15] 106% | viability, T/C [16] 119% | viability, T/C (second compound 1 µM, first compound 0.00316 µM) 110% | viability, T/C (second compound 1 µM, first compound 0.01 µM) 109% | viability, T/C [19] 108% | viability, T/C [20] 103% | viability, T/C [21] 111% | viability, T/C [22] 113% | viability, T/C (second compound 3.16 µM, first compound 0.00316 µM) 103% | viability, T/C (second compound 3.16 µM, first compound 0.01 µM) 99.2% | viability, T/C [25] 101% | viability, T/C [26] 104% | viability, T/C [27] 128% | viability, T/C [28] 119% | viability, T/C (second compound 10 µM, first compound 0.00316 µM) 109% | viability, T/C (second compound 10 µM, first compound 0.01 µM) 107% | viability, T/C [31] 95.3% | viability, T/C [32] 107% | viability, T/C [33] 120% | viability, T/C [34] 125%
> 1 µM: IC50 (second compound 0.0316 µM) | IC50 (second compound 0.1 µM) | IC50 (second compound 0.316 µM) | IC50 (second compound 1 µM) | IC50 (second compound 3.16 µM) | IC50 (second compound 10 µM)

C[C@@H](NC(=O)c1ncnc(N)c1Cl)c1ncc(C(=O)Nc2cc(C(F)(F)F)c(Cl)cn2)s1 + C#Cc1c(F)ccc2cc(O)cc(-c3ncc4c(N5CC6CCC(C5)N6)nc(OCC56CCCN5CC(F)C6)nc4c3F)c12
> 10 µM: IC50 (second compound 0.0316 µM) | IC50 (second compound 0.1 µM) | IC50 (second compound 0.316 µM) | IC50 (second compound 1 µM) | IC50 (second compound 3.16 µM) | IC50 (second compound 10 µM)
inactive: viability, T/C [1] 105% | viability, T/C [2] 101% | viability, T/C [3] 108% | viability, T/C [4] 90.7% | viability, T/C [5] 85.2% | viability, T/C [6] 72.3% | viability, T/C [7] 98.5% | viability, T/C [8] 111% | viability, T/C [9] 96.4% | viability, T/C [10] 99.1% | viability, T/C [11] 81.4% | viability, T/C [12] 71.4% | viability, T/C [13] 104% | viability, T/C [14] 108% | viability, T/C [15] 96.7% | viability, T/C [16] 95.9% | viability, T/C [17] 80.4% | viability, T/C [18] 70.5% | viability, T/C [19] 105% | viability, T/C [20] 114% | viability, T/C [21] 111% | viability, T/C [22] 82.5% | viability, T/C [23] 71.1% | viability, T/C [24] 61.5% | viability, T/C [25] 99.3% | viability, T/C [26] 101% | viability, T/C [27] 91.6% | viability, T/C [28] 87.3% | viability, T/C [29] 76.4% | viability, T/C [30] 65.7% | viability, T/C [31] 105% | viability, T/C [32] 100% | viability, T/C [33] 92.8% | viability, T/C [34] 86.2% | viability, T/C [35] 71.6% | viability, T/C [36] 57.2%
